Assay results from US20090258069A1, “Delivery of LFA-1 antagonists to the gastrointestinal system” (priority 2008, published 2009).
Like-named read-outs stand apart in the source and are kept apart here.

Tests used:
[1] = biological target: T1, LFA-1 (Homo sapiens, UniProt P20701); conditions: at greater than 90% occupancy of LFA-1; cited from earlier work
T1 construct: greater than 90% occupancy of LFA-1 with efalizumab led to a greater than 50% clinical improvement in PASI score in a clinical trial; host or cells: leukocytes of psoriasis patients (in vivo)

[2] = tested on: human mononuclear cells (PBMC) stimulated with staphylococcal enterotoxin B (SEB); experiment: cells; format: cell-based

T1 sequence (P20701 26-1170): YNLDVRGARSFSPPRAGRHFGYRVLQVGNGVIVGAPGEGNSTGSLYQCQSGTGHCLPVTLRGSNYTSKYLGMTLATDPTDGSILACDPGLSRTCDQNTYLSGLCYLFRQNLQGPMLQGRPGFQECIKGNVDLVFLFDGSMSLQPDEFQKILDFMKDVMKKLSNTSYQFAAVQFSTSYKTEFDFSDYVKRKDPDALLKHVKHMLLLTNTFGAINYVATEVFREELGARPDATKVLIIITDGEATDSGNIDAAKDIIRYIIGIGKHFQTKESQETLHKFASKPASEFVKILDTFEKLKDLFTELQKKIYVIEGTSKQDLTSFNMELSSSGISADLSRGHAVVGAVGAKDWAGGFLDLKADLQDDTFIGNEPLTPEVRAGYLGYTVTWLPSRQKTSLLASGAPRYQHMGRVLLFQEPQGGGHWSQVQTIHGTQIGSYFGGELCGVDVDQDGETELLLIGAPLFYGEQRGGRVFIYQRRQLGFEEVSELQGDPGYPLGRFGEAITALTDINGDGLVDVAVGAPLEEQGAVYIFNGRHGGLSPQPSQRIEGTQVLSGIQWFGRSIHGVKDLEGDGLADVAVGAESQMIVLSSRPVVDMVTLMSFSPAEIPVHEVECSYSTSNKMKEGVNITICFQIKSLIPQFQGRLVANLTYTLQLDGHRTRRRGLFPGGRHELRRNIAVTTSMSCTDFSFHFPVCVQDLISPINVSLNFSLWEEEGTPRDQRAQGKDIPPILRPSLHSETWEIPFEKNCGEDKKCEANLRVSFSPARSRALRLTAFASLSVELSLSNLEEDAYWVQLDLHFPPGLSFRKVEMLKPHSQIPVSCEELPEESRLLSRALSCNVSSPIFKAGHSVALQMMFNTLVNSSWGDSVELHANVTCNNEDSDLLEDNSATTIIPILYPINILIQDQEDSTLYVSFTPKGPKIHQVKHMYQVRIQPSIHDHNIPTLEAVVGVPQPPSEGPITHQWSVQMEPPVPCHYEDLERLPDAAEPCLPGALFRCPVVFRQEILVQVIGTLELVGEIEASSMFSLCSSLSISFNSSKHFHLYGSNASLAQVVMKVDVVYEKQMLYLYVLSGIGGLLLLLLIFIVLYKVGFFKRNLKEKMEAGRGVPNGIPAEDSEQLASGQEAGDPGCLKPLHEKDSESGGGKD
T1 sequence (P05107 23-769 partner): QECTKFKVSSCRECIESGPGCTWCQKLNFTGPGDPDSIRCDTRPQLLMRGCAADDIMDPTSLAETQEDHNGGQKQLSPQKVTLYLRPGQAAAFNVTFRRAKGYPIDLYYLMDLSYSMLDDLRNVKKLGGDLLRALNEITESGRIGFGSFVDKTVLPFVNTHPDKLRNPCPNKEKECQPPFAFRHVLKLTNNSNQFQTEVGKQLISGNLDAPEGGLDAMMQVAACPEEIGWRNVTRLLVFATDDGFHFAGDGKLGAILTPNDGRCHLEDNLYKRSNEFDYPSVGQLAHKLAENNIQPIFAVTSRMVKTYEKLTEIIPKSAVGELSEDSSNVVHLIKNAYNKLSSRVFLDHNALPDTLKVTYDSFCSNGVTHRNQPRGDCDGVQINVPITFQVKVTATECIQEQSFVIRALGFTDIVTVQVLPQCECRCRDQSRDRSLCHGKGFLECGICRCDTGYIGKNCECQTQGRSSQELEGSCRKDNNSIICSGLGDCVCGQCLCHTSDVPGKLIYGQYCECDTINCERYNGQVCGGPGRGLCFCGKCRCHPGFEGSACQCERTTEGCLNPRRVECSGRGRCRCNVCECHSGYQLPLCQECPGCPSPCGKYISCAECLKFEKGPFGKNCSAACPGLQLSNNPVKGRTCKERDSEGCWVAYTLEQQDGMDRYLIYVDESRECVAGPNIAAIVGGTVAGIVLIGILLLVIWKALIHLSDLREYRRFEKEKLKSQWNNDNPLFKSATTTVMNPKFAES

Compound: efalizumab: antibody binding LFA-1, clinical trial in plaque psoriasis
- clinical improvement in PASI score [1]: greater than 50%

Compound: O=C(NC(Cc1cc(=O)[nH]c2ccccc12)C(=O)O)c1ccc(Cl)cc1 (centres unmarked) [Rebamipide, reference compound]
- EC50 ([2]; read-out: EC50 Cytokine Release GM-CSF): > 1 mM
- EC50 ([2]; read-out: EC50 Cytokine Release IFNγ): > 1 mM
- EC50 ([2]; read-out: EC50 Cytokine Release IL-1α): > 1 mM
- EC50 ([2]; read-out: EC50 Cytokine Release IL-1β): > 1 mM
- EC50 ([2]; read-out: EC50 Cytokine Release IL-2): > 1 mM
- EC50 ([2]; read-out: EC50 Cytokine Release IL-3): > 1 mM
- EC50 ([2]; read-out: EC50 Cytokine Release IL-4): > 1 mM
- EC50 ([2]; read-out: EC50 Cytokine Release IL-5): > 1 mM
- EC50 ([2]; read-out: EC50 Cytokine Release IL-6): > 1 mM
- EC50 ([2]; read-out: EC50 Cytokine Release IL-10): > 1 mM
- EC50 ([2]; read-out: EC50 Cytokine Release IL-12p40): > 1 mM
- EC50 ([2]; read-out: EC50 Cytokine Release IL-13): > 1 mM
- EC50 ([2]; read-out: EC50 Cytokine Release IP-10): > 1 mM
- EC50 ([2]; read-out: EC50 Cytokine Release MCP-1): > 1 mM
- EC50 ([2]; read-out: EC50 Cytokine Release MIP-1α): > 1 mM
- EC50 ([2]; read-out: EC50 Cytokine Release TNF-α): > 1 mM
